# Key:
# [1] = tested on: H2009 cells; test: Proliferation assay (IncuCyte ZOOM), H2009; type: cell-based; conditions: Homo sapiens, NCI-H2009; read-out: IC50 from proliferation curves
# Description: (§1) Analysis was performed using IncuCyte ZOOM (Essen BioScience) with images acquired every 3 hr for up to 72 hr. Four images (proliferation) and one image (wound healing) were captured per well for each time point. Data were normalized to controls, and values for 50% effective concentration were calculated using Prism V7.0 (GraphPad software, San Diego, Calif.).
# (§2) In vitro phenotypic assay. […] Proliferation and migration curves were generated using IncuCyte ZOOM (Essen BioScience) with images acquired every 3 hr over a 72 hr timeframe. Images were captured per well for each time point. Data were normalized to controls, and values for 50% inhibitory concentration were calculated using Prism V8.0 (GraphPad software).
# [2] = tested on: H2009 cells; test: Atomic force microscopy, H2009; type: cell-based, human
# Source text: Atomic force microscopy. […] Briefly, live cells cultured were imaged in 60 mm dishes with a Nanoscope Catalyst AFM (Bruker, Billerica, Mass.) mounted on a Nikon Ti inverted epifluorescent microscope. […] To collect the nanomechanical phenotypes of single cells immersed in culture media, 30×30 μm images were captured with a resolution of 256×256 pixels using the PeakForce Quantitative Nanomechanical Mapping (QNM) AFM (Bruker, Billerica, Mass.). For imaging, […]-AIR (Bruker, Billerica, Mass.) probes were applied with the nominal spring constant 0.4 N/m. Following the Sneddon model and the Sokolov's rules, nanomechanical parameters were calculated with Nanoscope Analysis software v.1.7 (Bruker, Billerica, Mass.) using retrace images. Images of at least 15 cells representing each tested case in three biological replicates were collected.
# Atomic force microscopy (AFM). […] Briefly, live cells cultured in 60 mm dishes were imaged with a Nanoscope Catalyst AFM (Bruker) mounted on a Nikon Ti inverted epifluorescent microscope. […] To collect the nanomechanical phenotypes of single cells immersed in culture media, 30×30 μm images were captured with a resolution of 256×256 pixels using the Peak Force Quantitative Nanomechanical Mapping (QNM) AFM (Bruker). For imaging, […]-AIR probes were used with the nominal spring constant 0.4 N/m. Following the Sneddon model and the Sokolov's rules, nanomechanical parameters were calculated with Nanoscope Analysis software v.1.7 using retrace images.
# [3] = tested on: A549 cells; test: Proliferation assay (IncuCyte ZOOM), A549; type: cell-based; conditions: Homo sapiens, read-out: IC50 from proliferation curves
# Description: as §1, §2
# [4] = tested on: A549 and H2009 cells; test: CyTOF profiling of lung cancer cell lines; type: cell-based, human
# Description: Cytometry by time of flight mass spectrometry (CyTOF). Antibodies were conjugated according to the manufacturer's instructions (Fluidigm, South San Francisco, Calif.) or purchased in pre-conjugated forms from the supplier (Fluidigm). […] The cells were harvested and stained with cisplatin (Fluidigm) and metal-conjugated surface antibodies sequentially for viability and surface staining. After fixation and permeabilization, the intracellular staining with metal-conjugated antibodies was performed. The cells were then labeled with an iridium-containing DNA intercalator (^191Ir^+, ^193Ir^+) to identify cell events before analysis on a Helios mass cytometer (Fluidigm). Signals were bead-normalized using EQ Four Element Calibration Beads (Fluidigm). Signals of samples were normalized using CyTOF software (Version 6.7.1014, Fluidigm). The generated files underwent signal cleanup and filtering for live/dead cells using Cytobank (https://www.cytobank.org/, Cytobank Inc.) and download gated Flow Cytometry Standard (FCS) file for further analysis using Cytofkit based on PhenoGraph algorithm, which was implemented in R and freely available from the Bioconductor website (https://bioconductor.org/packages/cytofkit/). CyTOF data was visualized using t-distributed stochastic neighbor embedding (t-SNE) algorithm and plotted on a continuum of protein expression with phenotypically related cells clustered together.
# Cytometry by time-of-flight (CyTOF). Antibodies were conjugated in-house according to the manufacturer's instructions or purchased in pre-conjugated forms from the supplier (Fluidigm; Table 5). Single cells from cell lines, tumors, or PBMCs were harvested and stained with cisplatin and metal-conjugated surface antibodies sequentially for viability and surface staining. After fixation and permeabilization, cells were stained with metal-conjugated antibodies. The cells were then labeled with an iridium-containing DNA intercalator (^191Ir^+ or ^193Ir^+) for identification of cell events before analysis on a Helios mass cytometer. Signals were bead-normalized using EQ Four Element Calibration Beads.
# Signals of samples were normalized using CyTOF software (Version 6.7.1014, Fluidigm). The generated files underwent signal cleanup and filtering for single cells using Cytobank (https://www.cytobank.org/). The gated Flow Cytometry Standard (FCS) file were downloaded for further analysis using Cytofkit. The PhenoGraph clustering algorithm in Cytofkit was implemented in R from the Bioconductor website (https://bioconductor.org/packages/cytofkit/). […] Epithelial and mesenchymal indices were calculated based on the average Z-score of epithelial and mesenchymal markers. […]
# [5] = tested on: A549, H2009 and H226 cell lines; test: Wound healing (migration) assay; type: cell-based, human
# Description: as §1, §2
smiles,measurement,setting,value
CN1CCN(Cc2ccc(Nc3ncc(Cl)c(Nc4ccccc4S(=O)(=O)N(C)C)n3)cc2)CC1 [TP-0903],IC50,[1],0.0355 µM
same,deformation,[2]; H2009,not significantly affected
same,increase of adhesion,"[2]; H2009, 40 nmol/L, 24 hr",35%
same,increase of stiffness,"[2]; H2009, 40 nmol/L, 24 hr",61%
same,IC50,[3],0.0316 µM
same,phosphorylated STAT3 (pSTAT3) levels (CyTOF),"[4]; A549, 40 nmol/L",dramatically increased
same,SMAD4 (CyTOF),"[4]; A549 subpopulations #6-8, 40 nmol/L",suppressed
same,JAK1-pSTAT3 expression (CyTOF),[4]; H2009 subpopulations #15 and 16 after treatment,amplified
same,CD133 (CyTOF),"[4]; cell lines, 40 nmol/L",elevated
same,cytotoxicity based on cell morphology,"[5]; A549 and H2009, increasing concentrations",did not result in significant cytotoxicity
same,migration potential,"[5]; increasing concentrations, 0-200 nM",significantly impeded
